Measurements from patent US20240058288A1, “DRUG COCKTAIL FOR TREATMENT OF PARKINSON'S DISEASE, LEWY BODY DISEASE AND MULTIPLE SYSTEM ATROPHY” (ALETA NEUROSCIENCE, LLC, priority 2021, published 2024).
Entries after “also recorded” stand apart in the source; their conditions may differ. Read-outs that look alike come from different tables or passages of the source.

Key:
[1] = system: human dopaminergic neurons (iCell DopaNeurons); assay: MPP+-induced neurotoxicity: neurite outgrowth (neurite length, branch points) of iCell DopaNeurons, Incucyte; assay type: cell-based
From the text: (§1) We conducted an in vitro study of the drugs in Table 1 to evaluate the neuroprotective effects of 44 conditions of treatment (Table 2, experiments 1-41; 51-53) against MPP+-induced neurodegeneration toxicity on human dopaminergic neurons (iCell® DopaNeurons: iPS cell-derived human midbrain floorplate dopaminergic neurons). Further combinations (Table 2, experiments 42-50 and Table 3) are also disclosed.
iCell DOPA neurons are neural floor plate-derived midbrain dopaminergic neurons generated from human induced pluripotent stem cells (iPSCs). Dopaminergic neurons, specifically those located in the floor plate-derived midbrain are implicated in neurological disorders such as Parkinson's disease, MSA and DLBD among others. Thus iCell DopaNeurons provide a highly relevant in vitro model to investigate these types of pathologies (42, 43). The iCellDopa neurons were supplied from FUJIFILM Cellular Dynamics.
(§2) Three different measurements were made in the experiments. 1. Neurite length in mm is a measure of increase in dendrite length of neurons. […] 2. neurite branching is measure of dendrite branching. […] 3. Cytolysis of the cells is a measure of cell death. […] Experimental conditions were measured relative to the results of healthy cells in the studies.
(§3) Procedure. iCell DOPA neurons were thawed and cultured following the provider's instructions in Brainphys medium+provided supplements+1% N2 supplement (Stemcell Technologies)+penicillin/streptomycin+Laminin. They were plated at 20000 cells per well of a 384 well plate (pre-coated with poly-D-lysine and Laminin) in 70 μL of growth medium. Cells were incubated at 37° C./5% CO2 in a humidified cell culture incubator. Half of the culture medium was changed twice a week.
(§4) MPP+-induced neurotoxicity: 24 hours after neuronal plating, half of the medium was removed and the test compounds were applied with MPP+ treatment, both concentrated at 4×, were added to the wells. For each condition, six aliquots were added, corresponding to columns A-F in Table 2. Except for the NT/NT row, in each row, either the compound indicated dissolved in its vehicle noted in Table 1 was added, or only a vehicle was added as indicated. Column F is an indicator of whether MPP+ was added. If not, only the medium was added.
(§5) For the evaluation of conditions 1-28, Neurite outgrowth was followed for subsequent 48 hours using an Incucyte Zoom platform with one phase contrast image every 4 hours, using a 20× objective. After 48 hours, the medium containing test compounds and MPP+ was removed and replaced by fresh medium containing a fluorescent cytolysis marker (red fluorescence) and a live cell marker (green fluorescence). For the evaluation of conditions 29-53, Neurite outgrowth was followed similarly for subsequent 72 hours after MPP+ was added.
Each condition 1-41 and 51-53 was repeated in 8 wells of a 384 well plate, that is, each test condition studied in Table 2 was repeated eight times. NT/NT were cells in the standard medium only. Control/NT are the cells in the vehicle (as described above), with and without MPP+.
Assay endpoints and data analysis. Phase contrast images were analyzed at each time point to determine the neurite length and number of branch points per mm^2. Kinetic data was plotted and kinetics were normalized by subtracting the value of the first data point (at time of treatment), allowing to measure changes in neurite outgrowth only from the onset of the treatment, starting at zero. Area Under Curve (AUC) of kinetic data was obtained and used for plotting compound's effects and perform statistical analyzes.
(§6) Statistical analysis. We used one-way ANOVA followed by Bonferroni's multiple comparisons test.

IL-6 = assay: LPS/ATP-induced IL-6 secretion by human microglia cells (Luminex); assay type: cell-based; settings: for anti-inflammatory effect on activated microglia, all three cytokines: LPS and ATP, IL-6, TNF-α, GROα together (FIG. 8, 9, 10)
From the text: (§7) In addition to the studies discussed above assessing activity of combinations of drugs on MPP+-induced neurodegeneration toxicity on human dopaminergic neurons and measuring neuronal growth and neurite branching, we also assessed combinations of drugs in reducing lipopolysaccharide (LPS, from E. coli)-induced neuroinflammation.
(§8) Lipopolysaccharides are important outer membrane components of gram-negative bacteria such as E. coli and salmonella. They are large amphipathic glycoconjugates that typically consist of a lipid domain (hydrophobic) attached to a core oligosaccharide and a distal polysaccharide. LPS binds to Toll-like receptor 4 (TLR4) and activates microglia (51) which in turn increases secretion of pro-inflammatory cytokines such as interleukin-6 (IL-6), tumor necrosis factor-α (TNF-α), and CXCL1/GROα.
(§9) Microglia cells were obtained from an iCell® Microglia kit, 01279 (Catalogue N° R1131) from FUJIFILM Cellular Dynamics. We followed the manufacturer's protocol for activation of the microglial cells with LPS/ATP to subsequently measure the effect of the study drugs on pro-inflammatory cytokines IL-6, TNF-α and CXCL1/GROα.
(§10) All cell culture procedures were performed in aseptic conditions, under a laminar flow hood. Microglia were thawed and cultured following the provider's instructions. The microglia were plated at 50,000 cells per well of a Corning Primaria 96 well plate (Ref N° 353872) in 100 μL of growth medium. Cells were incubated at 37° C./5% CO2 in a humidified cell culture incubator.
(§11) Three days after cell plating, the test or reference substances (25 μL of solutions at 5×) were applied 1 hour before LPS and ATP stimulation.
(§12) One hour later, 12.5 μL of test or reference substances were added again at 2× concentrated followed by 12.5 μL of LPS at 12× concentration. Fifty microliters of ATP were introduced at 4× concentration, 5 h 30 min after incubation with LPS.
(§13) Six hours after LPS incubation, the supernatant of each well was collected and centrifugated at 1000 g for 10 minutes to remove the cells and debris.
(§14) Fifty microliters of supernatant from NT and LPS+ATP-treated wells were used to determine cytokine secretion (IL-6, TNF-α, CXCL1/GROα) by Luminex platform according to the provider's instructions. Samples were diluted prior to the assay to fit within the standard range if needed. Three wells were tested per each condition (Table 10). Cytokines levels in the supernatant were expressed in pg/mL. The data was analyzed using a One-Way ANOVA followed by Bonferroni test.

PrP = settings: cell-free aggregation assays, chronically and acutely infected cell cultures; cited from earlier work
[2] = pre-treatment 50 mg/kg for 3 days; cited from earlier work
[3] = system: human dopaminergic neurons (iCell DopaNeurons); assay: MPP+-induced neurotoxicity: cytolysis of iCell DopaNeurons; assay type: cell-based
From the text: as §1, §2, §3, §4, §5
Data was normalized to control conditions as there is basal cytolysis in the cell culture after thawing.
Fluorescently immuno-stained cells were imaged on a high content imaging platform. Individual segmentation of cells was performed by image analysis of the MAP2 and NeuN staining. The number of neurons and the neurite length were measured. The percentage of cytolyzed cells was also calculated.
as §6

TNF-α = assay: LPS/ATP-induced TNF-α secretion by human microglia cells (Luminex); assay type: cell-based
From the text: as §7, §8, §9, §10, §11, §12, §13, §14

[4] = chronic PD and DLBD mouse models; cited from earlier work
CXCL1/GROα = assay: LPS/ATP-induced CXCL1/GROα secretion by human microglia cells (Luminex); assay type: cell-based; settings: LPS 100 ng/mL + ATP 5 mM, 6 h after LPS, TAK-242 2 μM, MCC950 10 μM
From the text: as §7, §8, §9, §10, §11, §12, §13, §14

[5] = MPP+ 100 μM, Table 6.1 (FIG. 6A), followed 72 hours, PCI 30 μM
[6] = MPP+ 100 μM, Table 7.1 (FIG. 6B), followed 72 hours, PCI 30 μM
[7] = MPP+ 100 μM, Table 8.1 (FIG. 6C), PCI 30 μM
[8] = LPS 100 ng/mL + ATP 5 mM, 6 h after LPS, TAK-242 2 μM, MCC950 10 μM
[9] = LPS 100 ng/mL + ATP 5 mM, 6 h after LPS, three wells, TAK-242 2 μM, MCC950 10 μM
[10] = as compared with […] distilled water in presence of LPS and ATP

C[C@H](CCC(=O)NCCS(=O)(=O)O)[C@H]1CC[C@H]2[C@@H]3[C@@H](O)C[C@@H]4C[C@H](O)CC[C@]4(C)[C@H]3CC[C@]12C [TUDCA, tauroursodeoxycholic acid]
Neurite length data, plate 1, Mean [1, 5]: 1825.9 mm/mm^2
Neurite Branching Data, Plate 1, Mean ± S.D. [1, 6]: 58836.3 ± 9596.4 per mm^2
neurite length increased as compared with MPP+ alone ([1]; MPP+ 100 μM, conditions 29-53, followed 72 hours (FIG. 6A, 7A)): 43%
number of branches increased as compared with MPP+ alone ([1]; MPP+ 100 μM, conditions 29-53, followed 72 hours (FIG. 6B, 7B)): 60%
anti-inflammatory effect on activated microglia, all three cytokines (IL-6): Anti-inflammatory effects of the individual drugs were observed
PrP conversion (PrP): substantially reduced PrP conversion
neurodegeneration of the nigral dopaminergic neurons caused by MPTP [2]: significantly reduced neurodegeneration
Cytolysis, %, Plate 1, Mean ± S.D. [3, 7]: 70.69 ± 2.02%

COc1cc2nc(N3CCN(C(=O)C4CCCO4)CC3)nc(N)c2cc1OC (stereo not drawn) [TZ, Terazosin]
Neurite length data, plate 1, Mean [1, 5]: 1102.2 mm/mm^2
Neurite Branching Data, Plate 1, Mean ± S.D. [1, 6]: 31244.4 ± 12478.9 per mm^2
effects on neurite outgrowth ([1]; MPP+ 100 μM, vs MPP+ alone): no significant effects
Cytolysis, %, Plate 1, Mean ± S.D. [3, 7]: 72.78 ± 2.29%

Sodium Phenylbutyrate [PBA]
TNF-α in supernatant, Replicate 1 (TNF-α; [8]): 32.67 pg/mL
TNF-α in supernatant, Replicate 2 (TNF-α; [8]): 35.47 pg/mL
TNF-α in supernatant, Replicate 3 (TNF-α; [8]): 32.24 pg/mL
TNF-α in supernatant, Mean ± S.D. (TNF-α; [9]): 33.46 ± 1.75 pg/mL
decrease of TNF-α concentration (TNF-α; [10]): 44%
disease progression [4]: halted the disease progression
Neurite Branching Data, Plate 1, Mean ± S.D. [1]: 46742.8 ± 7107.5 per mm^2
Neurite length - Baseline-corrected AUC (0-72 h), Mean [1]: 853.7 mm/mm^2
Neurite length data, plate 1, Mean [1]: 1681.1 mm/mm^2
Number of branch points per mm^2 - Baseline-corrected AUC (0-72 h), Mean [1]: 41712.8 per mm^2
number of branches as compared with MPP+ alone [1]: significantly increased
number of branches increased as compared with MPP+ alone (control/MPP+) [1]: 89%
protective effect against MPP+ [1]: showed the protective effect, but to a substantially lesser effect than when combined; also recorded: showed protective effect, but it was not statistically significant
CXCL1/GROα in supernatant, Replicate 1 (CXCL1/GROα): 627.29 pg/mL
CXCL1/GROα in supernatant, Replicate 2 (CXCL1/GROα): 383.60 pg/mL
CXCL1/GROα in supernatant, Replicate 3 (CXCL1/GROα): 476.49 pg/mL
CXCL1/GROα in supernatant, Mean ± S.D. (CXCL1/GROα; three wells): 495.79 ± 122.99 pg/mL
IL-6 in supernatant, Replicate 1 (IL-6; [8]): 396.23 pg/mL
IL-6 in supernatant, Replicate 2 (IL-6; [8]): 363.94 pg/mL
IL-6 in supernatant, Replicate 3 (IL-6; [8]): 305.53 pg/mL
IL-6 in supernatant, Mean ± S.D. (IL-6; [9]): 355.23 ± 45.97 pg/mL
anti-inflammatory effect on activated microglia, all three cytokines (IL-6): Anti-inflammatory effects of the individual drugs were observed
decrease of IL-6 concentration (IL-6; [10]): 49%
Cytolysis, %, Plate 1, Mean ± S.D. [3]: 72.06 ± 1.77%

CC(C)[C@H](NC(=O)c1ccc2ccccc2n1)C(=O)N[C@@H](CC(=O)O)C(=O)COc1c(F)cccc1F [PCI/MPP+, Q-VD-OPh]
Neurite Branching Data, Plate 1, Mean ± S.D. [1]: 38456.3 ± 11570.7 per mm^2
Neurite Branching Data, Plate 2, Mean ± S.D. [1]: 52610.1 ± 16660.1 per mm^2
Neurite length data, plate 1, Mean [1]: 1301.0 mm/mm^2
Neurite length, plate 2, Mean ± S.D. [1]: 1430.1 ± 321.7 mm/mm^2
Cytolysis, %, Plate 1, Mean ± S.D. [3]: 65.56 ± 1.89%
Cytolysis, %, Plate 2, Mean ± S.D. [3]: 67.93 ± 3.52%
